According to PMC7419507, “In vitro Cas9-assisted editing of modular polyketide synthase genes to produce desired natural product derivatives” (Nature Communications, 2020):
Where “and” joins values, the source holds several entries; their conditions need not be identical. Equal values may be shown once.

Assays:
Assay type in all cases: cell-based
[1] = system: human ovarian adenocarcinoma SKOV-3 cells; assay: Cytotoxicity assay (CellTiter-Glo, 72 h), SKOV-3; conditions: raw replicate data
Protocol: (§1) Jurkat cells were cultured in RPMI1640 medium supplemented with 10% foetal bovine serum, penicillin (50 U/ml), streptomycin (50 μg/ml), and Glutamax. SKOV-3 cells were cultured in DMEM medium supplemented with 10% fetal bovine serum, penicillin (50 U/ml), and streptomycin (50 μg/ml). MESO-1 cells were cultured in RPMI1640 medium supplemented with 10% fetal bovine serum, penicillin (50 U/ml), and streptomycin (50 μg/ml). All cell lines were seeded in a 384-well plate at a density of 1000 cells/well in 20 μl of media and incubated at 37 °C in a humidified incubator with 5% CO2. After 4 h, 2-fold dilution samples resolved in DMSO were added to the cell culture at the concentration of 0.5% (0.1 μl) and incubated for 72 h. Cell viabilities were measured using a CellTiter-Glo luminescent cell viability assay and EnVision multilabel plate reader.

[2] = Cytotoxicity assay (CellTiter-Glo, 72 h), MESO-1; conditions: human
Protocol: as §1

[3] = system: malignant pleural mesothelioma MESO-1 cells; assay: Cytotoxicity assay (CellTiter-Glo, 72 h), MESO-1; conditions: raw replicate data
Protocol: as §1

CO[C@H]1C[C@@H]2CC[C@@H](C)[C@@](O)(O2)C(=O)C(=O)N2CCCC[C@H]2C(=O)O[C@H]([C@H](C)C[C@@H]2CC[C@@H](O)[C@H](OC)C2)CC(=O)[C@H](C)/C=C(\C)[C@@H](O)[C@@H](OC)C(=O)[C@H](C)C[C@H](C)/C=C/C=C/C=C/1C [Compound 1, rapamycin, reference compound]
SKOV3 viability (%) ([1]; conc 9.53674e-5 uM): 85.5% and 83.5% | SKOV3 viability (%) ([1]; conc 0.000190735 uM): 77.8% | SKOV3 viability (%) ([1]; conc 0.00038147 uM): 76.1% and 77.6% | SKOV3 viability (%) ([1]; conc 0.000762939 uM): 63.5% and 66.3% | SKOV3 viability (%) ([1]; conc 0.00152588 uM): 104.6% and 106.1% | SKOV3 viability (%) ([1]; conc 0.00305176 uM): 68.3% and 63.8% | SKOV3 viability (%) ([1]; conc 0.00610352 uM): 65.9% | SKOV3 viability (%) ([1]; conc 0.012207 uM): 65.2% and 58.2% | SKOV3 viability (%) ([1]; conc 0.0244141 uM): 61.9% and 60.6% | SKOV3 viability (%) ([1]; conc 0.0488281 uM): 65.4% and 58.1% | SKOV3 viability (%) ([1]; conc 0.0976562 uM): 60.9% and 62.0% | SKOV3 viability (%) ([1]; conc 0.195312 uM): 60.7% and 56.3% | SKOV3 viability (%) ([1]; conc 0.390625 uM): 59.9% and 61.0% | SKOV3 viability (%) ([1]; conc 0.78125 uM): 54.1% and 58.4% | SKOV3 viability (%) ([1]; conc 1.5625 uM): 63.0% | SKOV3 viability (%) ([1]; conc 3.125 uM): 54.7% | SKOV3 viability (%) ([1]; conc 6.25 uM): 63.2% | SKOV3 viability (%) ([1]; conc 12.5 uM): 56.9% | SKOV3 viability (%) ([1]; conc 25 uM): 55.5% | SKOV3 viability (%) ([1]; conc 50 uM): 16.3% and 24.9% and 9.3% | viability at 72 h ([2]; MESO-1 cells (malignant pleural mesothelioma), MESO-1 cells, 72 h, read-out: Plateau level of cell viability in the dose-response curve): ~75% | viability at 72 h, 9.53674e-05 uM ([2]; MESO-1 malignant pleural mesothelioma cells, conc 9.53674e-5 uM, raw replicate data, read-out: MESO1 viability (%)): 79% | viability at 72 h, 0.000190735 uM ([2]; MESO-1 malignant pleural mesothelioma cells, conc 0.000190735 uM, raw replicate data, read-out: MESO1 viability (%)): 73.6% | viability at 72 h, 0.00038147 uM ([2]; MESO-1 malignant pleural mesothelioma cells, conc 0.00038147 uM, raw replicate data, read-out: MESO1 viability (%)): 83.4% | viability at 72 h, 0.000762939 uM ([2]; MESO-1 malignant pleural mesothelioma cells, conc 0.000762939 uM, raw replicate data, read-out: MESO1 viability (%)): 73.1% | viability at 72 h, 0.00152588 uM ([2]; MESO-1 malignant pleural mesothelioma cells, conc 0.00152588 uM, raw replicate data, read-out: MESO1 viability (%)): 116% | viability at 72 h, 0.00305176 uM ([2]; MESO-1 malignant pleural mesothelioma cells, conc 0.00305176 uM, raw replicate data, read-out: MESO1 viability (%)): 69.5% | viability at 72 h, 0.00610352 uM ([2]; MESO-1 malignant pleural mesothelioma cells, conc 0.00610352 uM, raw replicate data, read-out: MESO1 viability (%)): 78.3% | viability at 72 h, 0.012207 uM ([2]; MESO-1 malignant pleural mesothelioma cells, conc 0.012207 uM, raw replicate data, read-out: MESO1 viability (%)): 77.6% | viability at 72 h, 0.0244141 uM ([2]; MESO-1 malignant pleural mesothelioma cells, conc 0.0244141 uM, raw replicate data, read-out: MESO1 viability (%)): 75.2% | viability at 72 h, 0.0488281 uM ([2]; MESO-1 malignant pleural mesothelioma cells, conc 0.0488281 uM, raw replicate data, read-out: MESO1 viability (%)): 75% | viability at 72 h, 0.0976562 uM ([2]; MESO-1 malignant pleural mesothelioma cells, conc 0.0976562 uM, raw replicate data, read-out: MESO1 viability (%)): 77% | viability at 72 h, 0.195312 uM ([2]; MESO-1 malignant pleural mesothelioma cells, conc 0.195312 uM, raw replicate data, read-out: MESO1 viability (%)): 74.8% | viability at 72 h, 0.390625 uM ([2]; MESO-1 malignant pleural mesothelioma cells, conc 0.390625 uM, raw replicate data, read-out: MESO1 viability (%)): 75.6% | viability at 72 h, 0.78125 uM ([2]; MESO-1 malignant pleural mesothelioma cells, conc 0.78125 uM, raw replicate data, read-out: MESO1 viability (%)): 68.5% | viability at 72 h, 1.5625 uM ([2]; MESO-1 malignant pleural mesothelioma cells, conc 1.5625 uM, raw replicate data, read-out: MESO1 viability (%)): 76.4% | viability at 72 h, 3.125 uM ([2]; MESO-1 malignant pleural mesothelioma cells, conc 3.125 uM, raw replicate data, read-out: MESO1 viability (%)): 73.6% | viability at 72 h, 6.25 uM ([2]; MESO-1 malignant pleural mesothelioma cells, conc 6.25 uM, raw replicate data, read-out: MESO1 viability (%)): 74.3% | viability at 72 h, 12.5 uM ([2]; MESO-1 malignant pleural mesothelioma cells, conc 12.5 uM, raw replicate data, read-out: MESO1 viability (%)): 71.1% | viability at 72 h, 25 uM ([2]; MESO-1 malignant pleural mesothelioma cells, conc 25 uM, raw replicate data, read-out: MESO1 viability (%)): 63.9% | viability at 72 h, 50 uM ([2]; MESO-1 malignant pleural mesothelioma cells, conc 50 uM, raw replicate data, read-out: MESO1 viability (%)): 1.1% | MESO1 viability (%) ([3]; conc 9.53674e-5 uM): 78.2% and 78.1% | MESO1 viability (%) ([3]; conc 0.000190735 uM): 77.7% and 77.2% | MESO1 viability (%) ([3]; conc 0.00038147 uM): 77.9% and 86.0% | MESO1 viability (%) ([3]; conc 0.000762939 uM): 70.2% and 70.0% | MESO1 viability (%) ([3]; conc 0.00152588 uM): 112.8% and 111.2% | MESO1 viability (%) ([3]; conc 0.00305176 uM): 76.5% | MESO1 viability (%) ([3]; conc 0.00610352 uM): 75.4% and 78.7% | MESO1 viability (%) ([3]; conc 0.012207 uM): 72.8% and 76.2% | MESO1 viability (%) ([3]; conc 0.0244141 uM): 77.3% | MESO1 viability (%) ([3]; conc 0.0488281 uM): 71.0% and 73.9% | MESO1 viability (%) ([3]; conc 0.0976562 uM): 74.5% and 75.3% | MESO1 viability (%) ([3]; conc 0.195312 uM): 73.7% and 71.3% | MESO1 viability (%) ([3]; conc 0.390625 uM): 76.1% | MESO1 viability (%) ([3]; conc 0.78125 uM): 74.4% and 74.1% | MESO1 viability (%) ([3]; conc 1.5625 uM): 76.3% | MESO1 viability (%) ([3]; conc 3.125 uM): 70.7% and 70.8% | MESO1 viability (%) ([3]; conc 6.25 uM): 70.6% and 74.9% | MESO1 viability (%) ([3]; conc 12.5 uM): 61.9% and 67.0% | MESO1 viability (%) ([3]; conc 25 uM): 64.2% and 64.1% | MESO1 viability (%) ([3]; conc 50 uM): 0.7% and 0.8%
